Where a name gives a salt, the structure may show the parent alone.

In the test the target is human recombinant LRRK2 protein (Homo sapiens, UniProt Q5S007). Put plainly: LRRK2 kinase activity assay (ADP-Glo, LRRKtide peptide). It counts as biochemical. As to conditions: human recombinant LRRK2 wt, LRRKtide peptide and ATP, 1 h at 37° C. In short, it runs like this: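 ADP-Glo luminescence read-out of a peptide assay: compound, ATP and LRRKtide substrate combined with recombinant human LRRK2 and incubated at 37 °C for 1 h. Ten-point data, N=2, curve-fitted to IC50.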
Chain of human recombinant LRRK2 protein (Q5S007 whole entry): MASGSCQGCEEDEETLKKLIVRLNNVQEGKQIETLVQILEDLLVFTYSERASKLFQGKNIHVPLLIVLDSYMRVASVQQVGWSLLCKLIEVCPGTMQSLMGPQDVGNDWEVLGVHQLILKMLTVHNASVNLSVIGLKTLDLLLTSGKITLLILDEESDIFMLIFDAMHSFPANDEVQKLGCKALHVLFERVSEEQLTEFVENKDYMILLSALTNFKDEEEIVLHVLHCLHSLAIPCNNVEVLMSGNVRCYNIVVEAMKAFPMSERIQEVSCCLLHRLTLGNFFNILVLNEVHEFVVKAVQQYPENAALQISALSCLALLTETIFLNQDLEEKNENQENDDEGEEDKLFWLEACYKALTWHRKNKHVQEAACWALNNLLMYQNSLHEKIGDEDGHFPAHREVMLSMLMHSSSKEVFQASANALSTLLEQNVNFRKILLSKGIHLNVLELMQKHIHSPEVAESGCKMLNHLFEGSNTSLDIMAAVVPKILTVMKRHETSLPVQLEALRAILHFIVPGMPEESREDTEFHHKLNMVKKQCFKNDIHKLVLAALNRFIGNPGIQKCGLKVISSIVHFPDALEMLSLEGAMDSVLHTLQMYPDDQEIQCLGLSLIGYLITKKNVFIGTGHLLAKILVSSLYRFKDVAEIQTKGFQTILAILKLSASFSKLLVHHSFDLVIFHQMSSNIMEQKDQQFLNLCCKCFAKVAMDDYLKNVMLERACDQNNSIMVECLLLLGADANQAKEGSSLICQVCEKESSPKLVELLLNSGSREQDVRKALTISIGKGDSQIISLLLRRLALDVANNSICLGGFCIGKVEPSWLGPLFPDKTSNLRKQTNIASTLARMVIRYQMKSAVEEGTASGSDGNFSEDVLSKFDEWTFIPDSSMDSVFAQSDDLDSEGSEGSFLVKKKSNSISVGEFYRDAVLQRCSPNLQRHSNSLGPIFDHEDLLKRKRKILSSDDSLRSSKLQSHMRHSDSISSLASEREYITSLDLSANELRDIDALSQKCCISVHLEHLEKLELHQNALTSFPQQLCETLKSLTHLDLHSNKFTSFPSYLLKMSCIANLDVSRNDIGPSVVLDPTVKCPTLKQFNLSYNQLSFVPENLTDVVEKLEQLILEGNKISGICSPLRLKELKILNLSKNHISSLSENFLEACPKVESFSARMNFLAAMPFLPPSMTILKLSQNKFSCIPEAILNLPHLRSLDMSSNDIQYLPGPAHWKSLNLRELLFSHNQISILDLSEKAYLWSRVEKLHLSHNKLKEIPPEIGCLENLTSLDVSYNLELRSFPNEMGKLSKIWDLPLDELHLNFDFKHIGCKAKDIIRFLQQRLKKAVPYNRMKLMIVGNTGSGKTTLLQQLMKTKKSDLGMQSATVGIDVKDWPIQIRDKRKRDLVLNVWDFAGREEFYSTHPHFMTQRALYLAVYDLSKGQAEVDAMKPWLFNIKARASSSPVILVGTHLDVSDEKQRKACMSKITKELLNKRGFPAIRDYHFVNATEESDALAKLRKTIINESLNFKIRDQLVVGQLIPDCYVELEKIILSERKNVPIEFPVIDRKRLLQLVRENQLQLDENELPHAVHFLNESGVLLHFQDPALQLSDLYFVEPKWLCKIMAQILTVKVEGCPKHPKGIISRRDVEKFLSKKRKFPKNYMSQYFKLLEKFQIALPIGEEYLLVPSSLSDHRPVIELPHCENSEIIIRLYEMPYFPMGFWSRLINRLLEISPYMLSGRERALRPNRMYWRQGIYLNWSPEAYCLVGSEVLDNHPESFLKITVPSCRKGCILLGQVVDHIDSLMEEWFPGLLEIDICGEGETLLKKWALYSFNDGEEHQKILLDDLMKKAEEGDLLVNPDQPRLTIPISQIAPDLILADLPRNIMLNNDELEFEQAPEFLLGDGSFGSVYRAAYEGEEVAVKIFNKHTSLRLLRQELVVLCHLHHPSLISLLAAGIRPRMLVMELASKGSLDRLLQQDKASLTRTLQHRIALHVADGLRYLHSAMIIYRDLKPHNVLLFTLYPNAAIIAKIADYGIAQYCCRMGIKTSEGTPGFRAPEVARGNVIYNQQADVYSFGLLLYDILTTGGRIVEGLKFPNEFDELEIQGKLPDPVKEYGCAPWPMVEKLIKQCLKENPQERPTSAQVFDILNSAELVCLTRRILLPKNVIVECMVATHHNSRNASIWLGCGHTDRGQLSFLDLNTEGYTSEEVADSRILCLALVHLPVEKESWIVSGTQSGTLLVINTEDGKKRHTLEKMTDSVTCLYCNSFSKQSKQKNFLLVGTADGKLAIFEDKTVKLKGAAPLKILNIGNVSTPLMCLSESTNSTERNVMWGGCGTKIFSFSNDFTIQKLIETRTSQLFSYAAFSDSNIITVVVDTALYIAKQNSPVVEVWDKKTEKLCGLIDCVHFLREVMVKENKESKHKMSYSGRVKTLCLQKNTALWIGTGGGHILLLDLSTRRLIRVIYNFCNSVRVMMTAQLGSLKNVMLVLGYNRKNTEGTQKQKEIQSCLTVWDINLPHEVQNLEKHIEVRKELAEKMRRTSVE
(In general: ADP-Glo turns the ADP formed in a reaction into a luminescent signal.)
On to `C[C@@H]1CCOCCCn2cc(cn2)-c2n[nH]c3ccc(cc23)O1` [Example 42, (12R)-12-methyl-9,13-dioxa-4,5,18,19-tetraazatetracyclo [12.5.2.1^2,5.0^17,20]docosa-1(19),2(22),3,14(21),15,17(20)-hexaene], for which the IC50 (as a rule, the concentration that gives 50% inhibition) was < 10 nM.
As for `C[C@@H]1COc2ccc3[nH]nc(c3c2)-c2cc(C#N)n(c2)CCOCCO1` [Example 86, (12R)-12-methyl-8,11,14-trioxa-5,19,20-triazatetracyclo [13.5.2.1^2,5.0^18,21]tricosa-1(20),2(23),3,15(22),16,18(21)-hexaene-4-carbonitrile], the figure is < 10 nM.
As for `C[C@H]1CCOCCOCC2=NC=C(S2)c2n[nH]c3ccc(cc23)O1` [Example 66, (13S)-13-methyl-7,10,14-trioxa-23-thia-4,19,20-triazatetracyclo[13.5.2.1^2,5.0^18,21]tricosa-1(20),2,4,15(22),16,18(21)-hexaene], the figure is < 10 nM; as for `O=C1COc2cc(cc(C3CCOC3)c2)-c2n[nH]c3ccc(cc23)OCCCN1` (centres unmarked) [Example 214, 4-(oxolan-3-yl)-7,14-dioxa-10,19,20-triazatetracyclo[13.5.2.1^2,6.0^18,21]tricosa-1(20),2(23),3,5,15,17,21-heptaen-9-one], < 10 nM.
As for `C[C@@H]1COCCOCCn2ncc(n2)-c2n[nH]c3ccc(cc23)O1` [Example 71, (13R)-13-methyl-8,11,14-trioxa-4,5,19,20,23-pentaazatetracyclo[13.5.2.1^2,5.0^18,21]tricosa-1(20),2(23),3,15(22),16,18(21)-hexaene], the figure is < 100 nM.
Take `c1cc2[nH]nc3c2cc1OCCCOCCCn1cc-3cn1` [Example 5, 9,13-dioxa-4,5,18,19-tetraazatetracyclo[12.5.2.1^2,5.0^17,20] docosa-1(19),2(22),3,14(21),15,17(20)-hexaene]: the IC50 was < 10 nM.
Regarding `O=C1CCc2cccc(c2)-c2n[nH]c3ccc(cc23)OCCCN1` [Example 166, 14-oxa-10,19,20-triazatetracyclo[13.5.2.1^2,6.0^18,21]tricosa-1(20),2(23),3,5,15(22),16,18(21)-heptaen-9-one], the IC50 was < 10 nM.
As for `O=C1CCn2ncc(n2)-c2n[nH]c3ccc(cc23)OC[C@H](F)CN1` [Example 227, (11R)-11-fluoro-13-oxa-4,5,9,18,19,22-hexaazatetracyclo [12.5.2.1^2,5.0^17,20]docosa-1(19),2(22),3,14(21),15,17(20)-hexaen-8-one], the figure is < 10 nM; as for `C[C@@H]1CCNC(=O)CCn2ncc(n2)-c2n[nH]c3ccc(cc23)O1` [Example 223, (12R)-12-methyl-13-oxa-4,5,9,18,19,22-hexaazatetracyclo[12.5.2.1^2,5.0^17,20]docosa-1(19),2(22),3,14(21),15,17(20)-hexaen-8-one], < 10 nM.
As to `C[C@@H]1NCCOc2cccc(c2)-c2n[nH]c3ccc(cc23)OC[C@H]1F` [Example 184, (11S,12S)-12-fluoro-11-methyl-7,14-dioxa-10,19,20-triazatetracyclo[13.5.2.1^2,6.0^18,21]tricosa-1(20),2,4,6(23),15,17,21-heptaene], the IC50 is < 100 nM.
Turning to `C[C@@H]1CCOCCCn2cc(cn2)-c2n[nH]c3cnc(cc23)O1` [Example 245, (12R)-12-methyl-9,13-dioxa-4,5,15,18,19-pentaaza tetracyclo[12.5.2.1^2,5.0^17,20]docosa-1(19),2(22),3,14(21),15,17(20)-hexaene], the IC50 was < 10 nM.
In the case of `Cc1cc2[nH]nc3c2cc1OCCCNCCOc1cncc-3c1` [Example 188, 16-methyl-7,14-dioxa-4,10,19,20-tetraazatetracyclo[13.5.2.1^2,6.0^18,21]tricosa-1(20),2(23),3,5,15(22),16,18(21)-heptaene], the IC50 was < 10 nM.
The same measure for `O=C1COc2cccc(c2)-c2n[nH]c3ccc(cc23)OCCC(CF)N1` (centres unmarked) [Example 154, 11-(fluoromethyl)-7,14-dioxa-10,19,20-triazatetracyclo [13.5.2.1^2,6.0^18,21]tricosa-1(20),2,4,6(23),15,17,21-heptaen-9-one]: < 100 nM; for `C[C@@H]1COCCOc2ccc3[nH]nc(c3c2)-c2cnn(c2)CCO1` [Example 60, (9R)-9-methyl-8,11,14-trioxa-4,5,19,20-tetraazatetracyclo[13.5.2.1^2,5.0^18,21] tricosa-1(20),2(23),3,15(22),16,18(21)-hexaene]: < 100 nM.
As for `O=C1COc2cc(cc(N3CCN(CC4CC4)CC3)c2)-c2n[nH]c3ccc(cc23)OCCCN1` [Example 209, 4-[4-(cyclopropylmethyl)piperazin-1-yl]-7,14-dioxa-10,19,20-triazatetracyclo[13.5.2.1^2,6.0^18,21]tricosa-1(20),2(23),3,5,15,17,21-heptaen-9-one], the figure is < 10 nM.
The same measure for `c1cc2[nH]nc3c2cc1OCCCNCCOc1cncc-3c1` [Example 137, 7,14-dioxa-4,10,19,20-tetraazatetracyclo[13.5.2.1^2,6.0^18,21]tricosa-1(20),2,4,6(23),15,17,21-heptaene]: < 10 nM.
For `FC1(F)COCCCn2cc(cn2)-c2n[nH]c3ccc(cc23)OC1` [Example 111, 11,11-difluoro-9,13-dioxa-4,5,18,19-tetraazatetracyclo[12.5.2.1^2,5.0^17,20] docosa-1(19),2(22),3,14(21),15,17(20)-hexaene], the IC50 is < 100 nM.
For `COC1CNCCOc2cccc(c2)-c2n[nH]c3ccc(cc23)OC1` (centres unmarked) [Example 171, 12-methoxy-7,14-dioxa-10,19,20-triazatetracyclo[13.5.2.1^2,6.0^18,21]tricosa-1(20),2(23),3,5,15,17,21-heptaene], the IC50 is < 100 nM.
As for `O=C1COc2cc(cc(N3CCN(C4CC4)CC3)c2)-c2n[nH]c3ccc(cc23)OCCCN1` [Example 217, 4-(4-cyclopropylpiperazin-1-yl)-7,14-dioxa-10,19,20-triazatetracyclo[13.5.2.1^2,6.0^18,21]tricosa-1(20),2(23),3,5,15,17,21-heptaen-9-one], the figure is < 10 nM; as for `C[C@@H]1COCCO[C@@H](C)c2cncc(c2)-c2n[nH]c3ccc(cc23)O1` [Example 14, (7S,13R)-7,13-dimethyl-8,11,14-trioxa-4,19,20-triazatetracyclo[13.5.2.1^2,6. 0^18,21]tricosa-1(20),2(23),3,5,15(22),16,18(21)-heptaene hydrochloride], < 100 nM; as for `c1cc2[nH]nc3c2cc1OCCCOCCOc1cncc-3c1` [Example 2, 7,10,14-trioxa-4,19,20-triazatetracyclo[13.5.2.1^2,6.0^18,21]tricosa-1(20),2(23), 3,5,15(22),16,18(21)-heptaene], < 10 nM.
As for `O=C1CCc2cc(F)cc(c2)-c2n[nH]c3ccc(cc23)OCCCN1` [Example 219, 4-fluoro-14-oxa-10,19,20-triazatetracyclo[13.5.2.1^2,6.0^18,21]tricosa-1(20),2(23),3,5,15(22),16,18(21)-heptaen-9-one], the figure is < 10 nM; as for `C[C@@H]1CCNCCCn2cc(cn2)-c2n[nH]c3ccc(cc23)O1` [Example 180, (12R)-12-methyl-13-oxa-4,5,9,18,19-pentaazatetracyclo [12.5.2.1^2,5.0^17,20]docosa-1(19),2(22),3,14(21),15,17(20)-hexaene], < 100 nM; as for `C[C@H]1COCCCOCc2nc(cn2C)-c2n[nH]c3ccc(cc23)O1` [Example 119, (13S)-4,13-dimethyl-7,11,14-trioxa-4,19,20,23-tetraazatetracyclo [13.5.2.1^2,5.0^18,21]tricosa-1(20),2,5(23),15(22),16,18(21)-hexaene], < 1000 nM.
The same measure for `C[C@H]1CCNCCOc2cncc(c2)-c2n[nH]c3ccc(cc23)O1` [Example 232, (13S)-13-methyl-7,14-dioxa-4,10,19,20-tetraazatetracyclo[13.5.2.1^2,6.0^18,21]tricosa-1(20),2,4,6(23),15(22),16,18(21)-heptaene]: < 10 nM; for `C[C@H]1CCNCCCn2cc(cn2)-c2n[nH]c3ccc(cc23)O1` [Example 233, (12S)-12-methyl-13-oxa-4,5,9,18,19-pentaazatetracyclo [12.5.2.1^2,5.0^17,20] docosa-1(19),2(22),3,14(21),15,17(20)-hexaene]: < 10 nM.
Take `c1cc2[nH]nc3c2cc1OCCOCCCOCc1ncc-3s1` [Example 84, 7,11,14-trioxa-23-thia-4,19,20-triazatetracyclo[13.5.2.1^2,5.0^18,21]tricosa-1(20),2,4,15(22), 16,18(21)-hexaene]: the IC50 is < 10 nM.
The same measure for `[2H]C1([2H])OCCO[C@@H](C)COc2ccc3[nH]nc(c3c2)-c2cnn(c2)C1([2H])[2H]` [Example 110, (12S)-12-methyl(6,6,7,7-2H4)-8,11,14-trioxa-4,5,19,20-tetraazatetracyclo [13.5.2.1^2,5.0^18,21]tricosa-1(20),2(23),3,15(22),16,18(21)-hexaene]: < 10 nM; for `c1cc2[nH]nc3c2cc1OCCCOCCCCn1cc-3cn1` [Example 6, 10,14-dioxa-4,5,19,20-tetraazatetracyclo[13.5.2.1^2,5.0^18,21]tricosa-1(20),2(23), 3,15(22),16,18(21)-hexaene]: < 10 nM; for `C1=C/COCCOc2ccc3[nH]nc(c3c2)-c2cnn(c2)CC/1` [Example 121, (8E)-11,14-dioxa-4,5,19,20-tetraazatetracyclo[13.5.2.1^2,5.0^18,21]tricosa-1(20),2(23),3,8,15(22),16,18(21)-heptaene]: < 10 nM.
As for `c1cc2[nH]nc3c2cc1NCCOCCOc1cc-3cc(N2CCOCC2)c1` [Example 1, 4-(morpholin-4-yl)-7,10-dioxa-13,18,19-triazatetracyclo[12.5.2.1^2,6.0^17,20] docosa-1(19),2(22),3,5,14(21),15,17(20)-heptaene], the figure is < 10 nM; as for `C[C@@H]1COCCOCCc2nc(cn2C)-c2n[nH]c3ccc(cc23)O1` [Example 76, (13R)-4,13-dimethyl-8,11,14-trioxa-4,19,20,23-tetraazatetracyclo[13.5.2.1^2,5.0^18,21]tricosa-1(20),2,5(23),15(22),16,18(21)-hexaene], > 1000 nM.

Source of the values: US20240246992A1, “MACROCYCLIC LRRK2 KINASE INHIBITORS” (LES LABORATOIRES SERVIER, priority 2021, published 2024).
